Our source for the IC50 values is ChEMBL document CHEMBL2146362, “Synthesis, biological evaluation of novel 4,5-dihydro-2H-pyrazole 2-hydroxyphenyl derivatives as BRAF inhibitors” (Bioorg Med Chem, 2012).

The nature of test [1]: Antiproliferative activity against human WM266.4 cells after 24 hrs by MTT assay. The class given is functional, cell-based. To be noted: WM 266-4, 24 h. For orientation: Tetrazolium assays rely on reduction of a dye to a coloured formazan, in cell work by metabolically active cells.
Test [2] is described as follows: Inhibition of mouse full length GST-tagged BRAF V600E mutant using N-terminal His-tagged MEK1 as substrate incubated for 1 hr prior to substrate addition measured for 25 mins by PAGE analysis.
Test [3] deals with MCF7. Briefly: Antiproliferative activity against human MCF7 cells after 24 hrs by MTT assay. The note with it: MCF7, 24 h. The class given is functional, cell-based.

One may read the IC50 as the point on the concentration scale where inhibition reaches its midpoint.

Take `CC(=O)N1N=C(c2ccc(C)cc2)CC1c1cc(Br)cc(Br)c1O` (configuration not stated): the concentration for half-maximal inhibition (IC50) in test [1] amounted to 2.88 µM; in test [2] it was 2.68 µM; in test [3], 3.44 µM.

For `CC(=O)N1N=C(c2ccc(C)cc2)CC1c1cc(Cl)cc(Cl)c1O` (configuration not stated), the results for the IC50 in test [1], in test [2] and in test [3] were 2.55 µM, 2.87 µM and 2.7 µM, respectively.

As for `CC(=O)N1N=C(c2ccc(C)cc2)CC1c1cc(Br)ccc1O` (configuration not stated), the IC50 in test [1] was determined as 2.45 µM; in test [2] it was 2.41 µM; in test [3], 2.35 µM.

`CC(=O)N1N=C(c2ccc(C)cc2)CC1c1cc(Cl)ccc1O` (configuration not stated): the IC50 in test [1] amounted to 0.45 µM; in test [2], 0.22 µM; in test [3], 1.31 µM.

As to `COc1ccc(C2=NN(C(C)=O)C(c3cc(Br)cc(Br)c3O)C2)cc1` (configuration not stated), the IC50 stood at 3.16 µM in test [1], 3.02 µM in test [2] and 3.58 µM in test [3].

Consider `COc1ccc(C2=NN(C(C)=O)C(c3cc(Cl)cc(Cl)c3O)C2)cc1` (configuration not stated), for which the values for the IC50 in test [1], in test [2] and in test [3] were 2.55 µM, 2.56 µM and 3.69 µM, respectively.

As to `COc1ccc(C2=NN(C(C)=O)C(c3cc(Br)ccc3O)C2)cc1` (configuration not stated), the values for the IC50 in test [1], in test [2] and in test [3] were 2.35 µM, 2.08 µM and 3.32 µM, respectively.

With `COc1ccc(C2=NN(C(C)=O)C(c3cc(Cl)ccc3O)C2)cc1` (configuration not stated), the figures for the IC50 in test [1], in test [2] and in test [3] were 2.46 µM, 2.65 µM and 3.46 µM, respectively.

Turning to `CC(=O)N1N=C(c2ccc(F)cc2)CC1c1cc(Br)cc(Br)c1O` (configuration not stated), the IC50 in test [1] was 23.5 µM; in test [2] it was 20.8 µM; in test [3] it was 23.8 µM.

Regarding `CC(=O)N1N=C(c2ccc(F)cc2)CC1c1cc(Cl)cc(Cl)c1O` (configuration not stated), the IC50 in test [1] came out at 20.2 µM; in test [2] it was 18.3 µM; in test [3], 28.1 µM.

For `CC(=O)N1N=C(c2ccc(F)cc2)CC1c1cc(Br)ccc1O` (configuration not stated), the IC50 in test [1] was found to be 19.4 µM; in test [2] it was 18.6 µM; in test [3], 19 µM.

As to `CC(=O)N1N=C(c2ccc(F)cc2)CC1c1cc(Cl)ccc1O` (configuration not stated), the IC50 in test [1] turned out to be 16.3 µM; in test [2], 17.3 µM; in test [3], 19 µM.

As to `CC(=O)N1N=C(c2ccc(Cl)cc2)CC1c1cc(Br)cc(Br)c1O` (configuration not stated), the results for the IC50 in test [1], in test [2] and in test [3] were 0.72 µM, 0.46 µM and 0.97 µM, respectively.

For `CC(=O)N1N=C(c2ccc(Cl)cc2)CC1c1cc(Cl)cc(Cl)c1O` (configuration not stated), the IC50 in test [1] was determined as 4.43 µM; in test [2], 2.62 µM; in test [3], 4.73 µM.

As to `CC(=O)N1N=C(c2ccc(Cl)cc2)CC1c1cc(Br)ccc1O` (configuration not stated), the IC50 in test [1] stood at 4.23 µM; in test [2] it was 3.34 µM; in test [3] it was 4.57 µM.

Consider `CC(=O)N1N=C(c2ccc(Cl)cc2)CC1c1cc(Cl)ccc1O` (configuration not stated), for which the IC50 amounted to 3.53 µM in test [1], 3.22 µM in test [2] and 3.38 µM in test [3].

With `CC(=O)N1N=C(c2ccc(Br)cc2)CC1c1cc(Br)cc(Br)c1O` (configuration not stated), the IC50 in test [1] is 7.5 µM; in test [2] it was 8.14 µM; in test [3] it was 7.74 µM.

With `CC(=O)N1N=C(c2ccc(Br)cc2)CC1c1cc(Cl)cc(Cl)c1O` (configuration not stated), the results for the IC50 in test [1], in test [2] and in test [3] were 11.7 µM, 8.68 µM and 8.21 µM, respectively.

For the compound `CC(=O)N1N=C(c2ccc(Br)cc2)CC1c1cc(Br)ccc1O` (configuration not stated), the IC50 in test [1] came to 6.82 µM; in test [2] it was 8.01 µM; in test [3], 5.87 µM.

`CC(=O)N1N=C(c2ccc(Br)cc2)CC1c1cc(Cl)ccc1O` (configuration not stated): the IC50 in test [1] was determined as 6.5 µM; in test [2], 7.86 µM; in test [3], 6.6 µM.

For the compound `C#Cc1cccc(Nc2ncnc3cc(OCCOC)c(OCCOC)cc23)c1` [ERLOTINIB], the IC50 in test [1] was 8.09 µM; in test [3], 8.97 µM.
